Measured values from ChEMBL document CHEMBL1201862, “PubChem BioAssay data set” (2004).
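Method: 48-hour compound exposure of cells in 96-well plates, five concentrations, linear interpolation of endpoints. GI50 is the concentration that inhibits growth by half.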 Active and inactive are the calls of the source. Cut-off read from the data, not from the text of the source: active = GI50 up to about 1.1 µM and inactive = higher.

Legend:
Assay in all cases: NCI anticancer screen, dose series, 48 h
BT-549 = tested on: BT-549
HCT-116 = tested on: HCT-116
SNB-75 = tested on: SNB-75
HT-29 = tested on: HT-29
NCI-H522 = tested on: NCI-H522
HOP-62 = tested on: HOP-62
UO-31 = tested on: UO-31
MOLT-4 = tested on: MOLT-4
EKVX = tested on: EKVX
HCT-15 = tested on: HCT-15
UACC-62 = tested on: UACC-62
SK-OV-3 = tested on: SK-OV-3
HOP-92 = tested on: HOP-92
SN12C = tested on: SN12C
U-251 = tested on: U-251
A498 = tested on: A498
PC-3 = tested on: PC-3
786-0 = tested on: 786-0
RPMI-8226 = tested on: RPMI-8226
UACC-257 = tested on: UACC-257
OVCAR-8 = tested on: OVCAR-8
MDA-MB-435 = tested on: MDA-MB-435
OVCAR-3 = tested on: OVCAR-3
SF-539 = tested on: SF-539
RXF 393 = tested on: RXF 393
T47D = tested on: T47D
SK-MEL-2 = tested on: SK-MEL-2
K562 = tested on: K562
NCI/ADR-RES = tested on: NCI/ADR-RES
Hs-578T = tested on: Hs-578T
COLO 205 = tested on: COLO 205
MDA-N = tested on: MDA-N
LOX IMVI = tested on: LOX IMVI
ACHN = tested on: ACHN
SR = tested on: SR
NCI-H226 = tested on: NCI-H226
NCI-H460 = tested on: NCI-H460
M14 = tested on: M14
KM12 = tested on: KM12
SK-MEL-5 = tested on: SK-MEL-5
MCF7 = tested on: MCF7
CAKI-1 = tested on: CAKI-1
CCRF-CEM = tested on: CCRF-CEM
Malme-3M = tested on: Malme-3M
IGROV-1 = tested on: IGROV-1
MDA-MB-231 = tested on: MDA-MB-231
SF-295 = tested on: SF-295
SF-268 = tested on: SF-268
SNB-19 = tested on: SNB-19
SW-620 = tested on: SW-620
TK-10 = tested on: TK-10
A549 = tested on: A549
OVCAR-4 = tested on: OVCAR-4
HL-60 = tested on: HL-60
SK-MEL-28 = tested on: SK-MEL-28
OVCAR-5 = tested on: OVCAR-5
DU-145 = tested on: DU-145
HCC 2998 = tested on: HCC 2998
NCI-H23 = tested on: NCI-H23

Compound: O=C(O)C1CCc2ccc3ccccc3c2C1c1cccc2ccccc12 (stereo not drawn)
- GI50 (BT-549): 19.1 µM (inactive)
- GI50 (HCT-116): 15.6 µM (inactive)
- GI50 (SNB-75): 22.9 µM (inactive)
- GI50 (HT-29): 17.4 µM (inactive)
- GI50 (NCI-H522): 21.4 µM (inactive)
- GI50 (HOP-62): 19 µM (inactive)
- GI50 (UO-31): 25.8 µM (inactive)
- GI50 (MOLT-4): 19.8 µM (inactive)
- GI50 (EKVX): 30.5 µM (inactive)
- GI50 (HCT-15): 19.4 µM
- GI50 (UACC-62): 15.1 µM (inactive)
- GI50 (SK-OV-3): 36.1 µM (inactive)
- GI50 (HOP-92): 19.1 µM (inactive)
- GI50 (SN12C): 24.2 µM (inactive)
- GI50 (U-251): 17.9 µM (inactive)
- GI50 (A498): 30.8 µM (inactive)
- GI50 (PC-3): 19.3 µM (inactive)
- GI50 (786-0): 18.2 µM (inactive)
- GI50 (RPMI-8226): 27.9 µM (inactive)
- GI50 (UACC-257): 25.9 µM (inactive)
- GI50 (OVCAR-8): 24.2 µM (inactive)
- GI50 (MDA-MB-435): 48.6 µM (inactive)
- GI50 (OVCAR-3): 16.3 µM (inactive)
- GI50 (SF-539): 23.8 µM (inactive)
- GI50 (RXF 393): 19 µM (inactive)
- GI50 (T47D): 43.9 µM (inactive)
- GI50 (SK-MEL-2): 18.2 µM (inactive)
- GI50 (K562): 32.3 µM (inactive)
- GI50 (NCI/ADR-RES): 23.3 µM (inactive)
- GI50 (Hs-578T): 33.2 µM (inactive)
- GI50 (COLO 205): 25.9 µM (inactive)
- GI50 (MDA-N): 22.1 µM (inactive)
- GI50 (LOX IMVI): 19.5 µM (inactive)
- GI50 (ACHN): 29.6 µM (inactive)
- GI50 (SR): 20.8 µM (inactive)
- GI50 (NCI-H226): 24.7 µM (inactive)
- GI50 (NCI-H460): 20 µM (inactive)
- GI50 (M14): 17.6 µM (inactive)
- GI50 (KM12): 21.9 µM (inactive)
- GI50 (SK-MEL-5): 16.5 µM (inactive)
- GI50 (MCF7): 34.7 µM (inactive)
- GI50 (CAKI-1): 68.2 µM (inactive)
- GI50 (CCRF-CEM): 19.1 µM (inactive)
- GI50 (Malme-3M): 22.4 µM (inactive)
- GI50 (IGROV-1): 22.9 µM (inactive)
- GI50 (MDA-MB-231): 30.2 µM (inactive)
- GI50 (SF-295): 23.9 µM (inactive)
- GI50 (SF-268): 27.9 µM (inactive)
- GI50 (SNB-19): 19.3 µM (inactive)
- GI50 (SW-620): 28.2 µM (inactive)
- GI50 (TK-10): 44.5 µM (inactive)
- GI50 (A549): 16.5 µM (inactive)
- GI50 (OVCAR-4): 29 µM (inactive)
- GI50 (HL-60): 26.6 µM (inactive)
- GI50 (SK-MEL-28): 18.7 µM (inactive)
- GI50 (OVCAR-5): 18.4 µM (inactive)
- GI50 (DU-145): 25.8 µM (inactive)

Compound: C[N+](C)(C)CCCSc1nc2ccccc2[nH]1
- GI50 (BT-549): > 100 µM (inactive)
- GI50 (HCT-116): > 100 µM (inactive)
- GI50 (HT-29): > 100 µM (inactive)
- GI50 (NCI-H522): > 100 µM (inactive)
- GI50 (HOP-62): > 100 µM (inactive)
- GI50 (UO-31): > 100 µM (inactive)
- GI50 (MOLT-4): > 100 µM (inactive)
- GI50 (EKVX): > 100 µM (inactive)
- GI50 (HCT-15): > 100 µM
- GI50 (UACC-62): > 100 µM (inactive)
- GI50 (SK-OV-3): > 100 µM (inactive)
- GI50 (HOP-92): > 100 µM (inactive)
- GI50 (SN12C): > 100 µM (inactive)
- GI50 (U-251): > 100 µM (inactive)
- GI50 (A498): > 100 µM (inactive)
- GI50 (PC-3): > 100 µM (inactive)
- GI50 (786-0): > 100 µM (inactive)
- GI50 (RPMI-8226): > 100 µM (inactive)
- GI50 (UACC-257): 30.1 µM (inactive)
- GI50 (OVCAR-8): > 100 µM (inactive)
- GI50 (MDA-MB-435): > 100 µM (inactive)
- GI50 (OVCAR-3): > 100 µM (inactive)
- GI50 (RXF 393): > 100 µM (inactive)
- GI50 (T47D): > 100 µM (inactive)
- GI50 (SK-MEL-2): > 100 µM (inactive)
- GI50 (HCC 2998): > 100 µM (inactive)
- GI50 (K562): > 100 µM (inactive)
- GI50 (NCI/ADR-RES): > 100 µM (inactive)
- GI50 (Hs-578T): > 100 µM (inactive)
- GI50 (COLO 205): > 100 µM (inactive)
- GI50 (MDA-N): > 100 µM (inactive)
- GI50 (LOX IMVI): > 100 µM (inactive)
- GI50 (ACHN): > 100 µM (inactive)
- GI50 (NCI-H226): > 100 µM (inactive)
- GI50 (NCI-H460): > 100 µM (inactive)
- GI50 (M14): > 100 µM (inactive)
- GI50 (KM12): > 100 µM (inactive)
- GI50 (SK-MEL-5): > 100 µM (inactive)
- GI50 (MCF7): > 100 µM (inactive)
- GI50 (CAKI-1): > 100 µM (inactive)
- GI50 (CCRF-CEM): > 100 µM (inactive)
- GI50 (Malme-3M): > 100 µM (inactive)
- GI50 (IGROV-1): > 100 µM (inactive)
- GI50 (MDA-MB-231): > 100 µM (inactive)
- GI50 (NCI-H23): > 100 µM (inactive)
- GI50 (SF-295): > 100 µM (inactive)
- GI50 (SF-268): > 100 µM (inactive)
- GI50 (SNB-19): > 100 µM (inactive)
- GI50 (SW-620): > 100 µM (inactive)
- GI50 (TK-10): > 100 µM (inactive)
- GI50 (A549): > 100 µM (inactive)
- GI50 (OVCAR-4): > 100 µM (inactive)
- GI50 (HL-60): > 100 µM (inactive)
- GI50 (SK-MEL-28): > 100 µM (inactive)
- GI50 (OVCAR-5): 89.7 µM (inactive)
- GI50 (DU-145): > 100 µM (inactive)
